Source: ChEMBL document CHEMBL3856231 (J Med Chem, 2016)

Columns and labels:
[1] = Drug metabolism in rat liver microsomes assessed as oxidative/degradative M5 metabolite formation at 10 uM after 120 mins in presence of NADPH by LC/MS/MS analysis; format: ADME; conditions: 2 h
[2] = Half life in CD-1 mouse liver microsomes by LC/MS/MS analysis; format: ADME
[3] = Drug metabolism in rat liver microsomes assessed as oxidative/degradative M1 metabolite formation at 10 uM after 120 mins in presence of NADPH by LC/MS/MS analysis; format: ADME; conditions: 2 h
[4] = Drug metabolism in rat liver microsomes assessed as oxidative/degradative M2 metabolite formation at 10 uM after 120 mins in presence of NADPH by LC/MS/MS analysis; format: ADME; conditions: 2 h
[5] = Drug metabolism in rat liver microsomes assessed as oxidative/degradative M6 metabolite formation at 10 uM after 120 mins in presence of NADPH by LC/MS/MS analysis; format: ADME; conditions: 2 h
[6] = (§1) Drug metabolism in rat liver microsomes assessed as (1S,5R,6S,7R)-7-[5-Chloro-2-((S)-1-methoxy-7-morpholin-4-yl-6,7,8,9-tetrahydro-5H-benzocyclohepten-2-ylamino)-pyrimidin-4-ylamino]-3-oxa-tricyclo[3.2.1.0(2,4)]octane-6-carboxylic acid amide formation at 10 uM after 120 mins in presence of NADPH by LC/MS/MS analysis; format: ADME; conditions: 2 h
[7] = Drug metabolism in human liver microsomes assessed as oxidative/degradative M1 metabolite formation at 10 uM after 120 mins in presence of NADPH by LC/MS/MS analysis; format: ADME; conditions: 2 h
[8] = Drug metabolism in human liver microsomes assessed as oxidative/degradative M2 metabolite formation at 10 uM after 120 mins in presence of NADPH by LC/MS/MS analysis; format: ADME; conditions: 2 h
[9] = Drug metabolism in human liver microsomes assessed as oxidative/degradative M5 metabolite formation at 10 uM after 120 mins in presence of NADPH by LC/MS/MS analysis; format: ADME; conditions: 2 h
[10] = Drug metabolism in human liver microsomes assessed as oxidative/degradative M6 metabolite formation at 10 uM after 120 mins in presence of NADPH by LC/MS/MS analysis; format: ADME; conditions: 2 h
[11] = as §1, with “human” for “rat”; format: ADME; conditions: 2 h
[12] = Half life in rat liver microsomes by LC/MS/MS analysis; format: ADME
[13] = Half life in human liver microsomes by LC/MS/MS analysis; format: ADME
[14] = target: ALK tyrosine kinase receptor (Homo sapiens, UniProt Q9UM73); experiment: Inhibition of NPM-ALK phosphorylation in human SUP-M2 cells after 2 to 3 hrs by ELISA; format: cell-based
Focal adhesion kinase 1 = Focal adhesion kinase 1 (Homo sapiens, UniProt Q05397); experiment: Inhibition of human FAK expressed in baculovirus after 30 mins using biotinyl-amino-hexanoyl-EQEDEPEGDYFEWLE-amide as substrate by TRF assay
Focal adhesion kinase 1, sequence (Q05397 whole entry): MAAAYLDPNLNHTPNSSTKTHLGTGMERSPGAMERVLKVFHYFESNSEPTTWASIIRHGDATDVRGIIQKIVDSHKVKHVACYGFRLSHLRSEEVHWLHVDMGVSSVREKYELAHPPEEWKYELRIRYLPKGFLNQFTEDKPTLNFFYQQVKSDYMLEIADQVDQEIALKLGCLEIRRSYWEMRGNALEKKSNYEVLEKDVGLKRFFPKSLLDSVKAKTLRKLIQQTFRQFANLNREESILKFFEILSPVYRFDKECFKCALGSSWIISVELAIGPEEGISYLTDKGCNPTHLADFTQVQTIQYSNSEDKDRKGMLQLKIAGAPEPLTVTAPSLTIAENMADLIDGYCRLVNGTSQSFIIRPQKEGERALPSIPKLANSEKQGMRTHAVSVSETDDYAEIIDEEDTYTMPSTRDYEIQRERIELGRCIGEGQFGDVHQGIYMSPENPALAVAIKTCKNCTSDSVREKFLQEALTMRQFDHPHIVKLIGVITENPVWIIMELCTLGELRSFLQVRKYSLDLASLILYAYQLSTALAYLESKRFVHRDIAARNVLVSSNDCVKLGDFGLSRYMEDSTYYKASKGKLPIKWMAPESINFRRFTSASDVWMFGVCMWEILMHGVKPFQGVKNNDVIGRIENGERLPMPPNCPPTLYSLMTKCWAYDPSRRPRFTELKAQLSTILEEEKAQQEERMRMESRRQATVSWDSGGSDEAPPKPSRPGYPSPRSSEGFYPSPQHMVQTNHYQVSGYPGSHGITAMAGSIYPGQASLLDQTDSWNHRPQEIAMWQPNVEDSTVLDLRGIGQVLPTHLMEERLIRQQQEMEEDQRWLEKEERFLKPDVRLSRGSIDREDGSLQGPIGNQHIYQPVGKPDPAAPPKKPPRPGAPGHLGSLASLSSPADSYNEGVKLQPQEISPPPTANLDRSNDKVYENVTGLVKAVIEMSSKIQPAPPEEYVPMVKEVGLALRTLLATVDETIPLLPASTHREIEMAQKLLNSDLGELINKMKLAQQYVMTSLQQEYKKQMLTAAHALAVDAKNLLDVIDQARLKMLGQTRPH

[15] = target: Voltage-gated inwardly rectifying potassium channel KCNH2 (Homo sapiens, UniProt Q12809); experiment: Inhibition of human ERG
Voltage-gated inwardly rectifying potassium channel KCNH2, sequence (Q12809 whole entry): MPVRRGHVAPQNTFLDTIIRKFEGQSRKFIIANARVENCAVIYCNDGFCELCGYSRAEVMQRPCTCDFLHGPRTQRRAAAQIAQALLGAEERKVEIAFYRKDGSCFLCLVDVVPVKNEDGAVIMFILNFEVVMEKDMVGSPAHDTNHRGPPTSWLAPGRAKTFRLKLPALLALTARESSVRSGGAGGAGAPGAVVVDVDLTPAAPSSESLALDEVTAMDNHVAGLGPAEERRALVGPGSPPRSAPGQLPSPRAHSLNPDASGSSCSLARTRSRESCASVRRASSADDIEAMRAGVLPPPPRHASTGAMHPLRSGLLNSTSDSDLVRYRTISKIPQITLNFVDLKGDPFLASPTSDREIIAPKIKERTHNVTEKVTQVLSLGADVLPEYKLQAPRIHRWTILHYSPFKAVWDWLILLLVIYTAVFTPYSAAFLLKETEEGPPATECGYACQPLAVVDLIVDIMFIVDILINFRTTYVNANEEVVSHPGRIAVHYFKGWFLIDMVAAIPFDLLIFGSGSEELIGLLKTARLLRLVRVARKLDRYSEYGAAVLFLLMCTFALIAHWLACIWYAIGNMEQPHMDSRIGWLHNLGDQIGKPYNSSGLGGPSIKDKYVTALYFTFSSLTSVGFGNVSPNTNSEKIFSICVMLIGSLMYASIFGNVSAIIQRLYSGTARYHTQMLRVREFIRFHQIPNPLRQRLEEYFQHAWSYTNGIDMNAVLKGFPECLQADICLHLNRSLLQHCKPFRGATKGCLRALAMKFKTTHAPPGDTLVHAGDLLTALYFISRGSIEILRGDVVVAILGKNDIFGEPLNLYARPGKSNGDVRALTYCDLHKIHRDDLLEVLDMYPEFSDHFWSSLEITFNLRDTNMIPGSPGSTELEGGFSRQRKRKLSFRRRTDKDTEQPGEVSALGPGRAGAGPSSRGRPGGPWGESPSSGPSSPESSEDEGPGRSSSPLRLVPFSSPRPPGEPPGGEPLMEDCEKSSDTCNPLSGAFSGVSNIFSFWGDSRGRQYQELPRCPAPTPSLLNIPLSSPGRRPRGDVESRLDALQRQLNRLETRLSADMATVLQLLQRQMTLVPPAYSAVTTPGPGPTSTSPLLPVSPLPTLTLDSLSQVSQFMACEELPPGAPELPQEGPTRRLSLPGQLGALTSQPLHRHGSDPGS

Cytochrome P450 1A2 = target: T1, Cytochrome P450 1A2 (Homo sapiens, UniProt P05177); experiment: Inhibition of CYP1A2 in human liver microsomes using phenacetin as substrate in presence of NADPH by LC/MS/MS analysis; format: ADME
T1 sequence (P05177 whole entry): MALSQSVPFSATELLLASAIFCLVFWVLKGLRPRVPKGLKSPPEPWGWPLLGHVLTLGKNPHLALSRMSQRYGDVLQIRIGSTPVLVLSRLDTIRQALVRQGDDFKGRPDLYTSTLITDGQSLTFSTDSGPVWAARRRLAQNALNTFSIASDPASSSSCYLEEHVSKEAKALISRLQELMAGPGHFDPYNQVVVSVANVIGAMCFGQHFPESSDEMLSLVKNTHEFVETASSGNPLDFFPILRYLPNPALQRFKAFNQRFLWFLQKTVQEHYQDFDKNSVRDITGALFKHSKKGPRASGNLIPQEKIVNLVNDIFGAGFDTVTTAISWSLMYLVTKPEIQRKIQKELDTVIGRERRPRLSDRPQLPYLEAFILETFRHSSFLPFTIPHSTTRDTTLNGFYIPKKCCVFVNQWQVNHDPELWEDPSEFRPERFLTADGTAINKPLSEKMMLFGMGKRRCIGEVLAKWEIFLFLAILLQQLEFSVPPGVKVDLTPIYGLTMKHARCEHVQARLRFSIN

Cytochrome P450 2C9 = Cytochrome P450 2C9 (Homo sapiens, UniProt P11712); experiment: Inhibition of CYP2C9 in human liver microsomes using diclofenac as substrate in presence of NADPH by LC/MS/MS analysis; format: ADME
Cytochrome P450 2C9, sequence (P11712 whole entry): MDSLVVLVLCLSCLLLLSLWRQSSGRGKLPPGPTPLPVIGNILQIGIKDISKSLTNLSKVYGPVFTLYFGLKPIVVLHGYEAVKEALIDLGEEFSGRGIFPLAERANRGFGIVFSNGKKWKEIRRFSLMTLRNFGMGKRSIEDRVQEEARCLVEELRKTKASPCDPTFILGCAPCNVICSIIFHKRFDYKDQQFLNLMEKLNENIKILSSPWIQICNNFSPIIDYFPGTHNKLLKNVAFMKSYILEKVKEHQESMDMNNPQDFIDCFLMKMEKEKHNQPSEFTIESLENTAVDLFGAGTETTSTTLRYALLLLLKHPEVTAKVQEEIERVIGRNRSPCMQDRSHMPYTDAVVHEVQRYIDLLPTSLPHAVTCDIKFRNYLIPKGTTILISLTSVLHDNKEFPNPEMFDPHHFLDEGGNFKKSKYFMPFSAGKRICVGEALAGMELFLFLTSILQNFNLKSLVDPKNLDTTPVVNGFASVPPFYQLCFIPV

Cytochrome P450 2C19 = Cytochrome P450 2C19 (Homo sapiens, UniProt P33261); experiment: Inhibition of CYP2C19 in human liver microsomes using S-mephenytoin as substrate in presence of NADPH by LC/MS/MS analysis; format: ADME
Cytochrome P450 2C19, sequence (P33261 whole entry): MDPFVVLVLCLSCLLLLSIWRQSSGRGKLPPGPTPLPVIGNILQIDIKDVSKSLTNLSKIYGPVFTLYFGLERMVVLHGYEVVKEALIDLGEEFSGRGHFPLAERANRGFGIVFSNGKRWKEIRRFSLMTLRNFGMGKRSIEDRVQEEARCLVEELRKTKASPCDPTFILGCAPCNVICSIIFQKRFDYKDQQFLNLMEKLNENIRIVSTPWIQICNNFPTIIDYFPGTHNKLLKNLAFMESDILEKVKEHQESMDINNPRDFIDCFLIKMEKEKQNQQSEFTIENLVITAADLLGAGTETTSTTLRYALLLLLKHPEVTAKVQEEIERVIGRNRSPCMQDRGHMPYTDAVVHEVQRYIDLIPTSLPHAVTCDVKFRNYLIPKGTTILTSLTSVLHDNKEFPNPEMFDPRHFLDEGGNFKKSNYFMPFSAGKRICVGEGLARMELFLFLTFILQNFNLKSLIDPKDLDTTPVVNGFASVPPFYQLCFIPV

Cytochrome P450 2D6 = Cytochrome P450 2D6 (Homo sapiens, UniProt P10635); experiment: Inhibition of CYP2D6 in human liver microsomes using dextromethorphan as substrate in presence of NADPH by LC/MS/MS analysis; format: ADME
Cytochrome P450 2D6, sequence (P10635 whole entry): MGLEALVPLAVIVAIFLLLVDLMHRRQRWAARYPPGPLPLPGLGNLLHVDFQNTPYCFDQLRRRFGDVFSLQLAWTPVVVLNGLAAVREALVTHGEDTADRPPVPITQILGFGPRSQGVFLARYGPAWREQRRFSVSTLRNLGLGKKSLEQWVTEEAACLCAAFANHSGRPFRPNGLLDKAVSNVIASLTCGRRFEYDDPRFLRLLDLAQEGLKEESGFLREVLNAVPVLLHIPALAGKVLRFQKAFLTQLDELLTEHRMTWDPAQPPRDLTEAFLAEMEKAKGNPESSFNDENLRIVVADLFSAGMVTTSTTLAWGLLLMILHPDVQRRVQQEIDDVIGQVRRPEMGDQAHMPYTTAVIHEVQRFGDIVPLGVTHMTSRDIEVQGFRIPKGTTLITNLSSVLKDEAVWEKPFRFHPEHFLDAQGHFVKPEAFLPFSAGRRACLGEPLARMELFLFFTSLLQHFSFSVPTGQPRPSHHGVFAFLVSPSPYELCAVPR

[16] = Half life in cynomolgus monkey liver microsomes by LC/MS/MS analysis; format: ADME, Macaca fascicularis
[17] = AUC (0 to infinity) in Sprague-Dawley rat at 5 mg/kg, po by LC/MS/MS analysis; format: ADME, organism-based; set-up: dose 5 mg/kg, time infinity, route oral; conditions: in vivo
[18] = Dose normalized AUC in CD-1 mouse at 10 mg/kg, po by LC/MS/MS analysis; format: ADME, organism-based; conditions: in vivo
[19] = Dose normalized AUC in Sprague-Dawley rat at 5 mg/kg, po by LC/MS/MS analysis; format: ADME, organism-based; conditions: in vivo
[20] = Dose normalized AUC in cynomolgus monkey at 10 mg/kg, po by LC/MS/MS analysis; format: ADME, organism-based, Macaca fascicularis; conditions: in vivo
Insulin receptor [21] = target: T2, Insulin receptor (Homo sapiens, UniProt P06213)
T2 sequence (P06213 28-758 limits assumed): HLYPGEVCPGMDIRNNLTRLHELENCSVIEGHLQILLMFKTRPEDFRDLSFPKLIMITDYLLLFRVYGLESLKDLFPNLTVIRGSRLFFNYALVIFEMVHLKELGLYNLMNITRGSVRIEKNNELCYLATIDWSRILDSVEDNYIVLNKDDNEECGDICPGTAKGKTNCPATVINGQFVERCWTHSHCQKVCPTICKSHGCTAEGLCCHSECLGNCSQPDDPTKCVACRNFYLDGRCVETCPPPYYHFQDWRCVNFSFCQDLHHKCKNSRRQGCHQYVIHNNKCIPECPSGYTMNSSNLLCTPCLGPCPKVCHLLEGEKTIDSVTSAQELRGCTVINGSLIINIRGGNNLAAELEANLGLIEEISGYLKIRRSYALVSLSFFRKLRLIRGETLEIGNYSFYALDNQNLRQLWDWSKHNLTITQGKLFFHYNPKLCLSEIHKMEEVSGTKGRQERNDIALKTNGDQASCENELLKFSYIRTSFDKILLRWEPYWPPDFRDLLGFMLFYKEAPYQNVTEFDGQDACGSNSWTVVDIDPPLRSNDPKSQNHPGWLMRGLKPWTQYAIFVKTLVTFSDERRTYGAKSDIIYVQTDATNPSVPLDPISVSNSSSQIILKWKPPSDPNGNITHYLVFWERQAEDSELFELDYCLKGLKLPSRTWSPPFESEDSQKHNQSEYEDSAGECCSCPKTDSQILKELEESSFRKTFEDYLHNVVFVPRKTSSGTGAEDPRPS
T2 sequence (P06213 763-1382 limits assumed): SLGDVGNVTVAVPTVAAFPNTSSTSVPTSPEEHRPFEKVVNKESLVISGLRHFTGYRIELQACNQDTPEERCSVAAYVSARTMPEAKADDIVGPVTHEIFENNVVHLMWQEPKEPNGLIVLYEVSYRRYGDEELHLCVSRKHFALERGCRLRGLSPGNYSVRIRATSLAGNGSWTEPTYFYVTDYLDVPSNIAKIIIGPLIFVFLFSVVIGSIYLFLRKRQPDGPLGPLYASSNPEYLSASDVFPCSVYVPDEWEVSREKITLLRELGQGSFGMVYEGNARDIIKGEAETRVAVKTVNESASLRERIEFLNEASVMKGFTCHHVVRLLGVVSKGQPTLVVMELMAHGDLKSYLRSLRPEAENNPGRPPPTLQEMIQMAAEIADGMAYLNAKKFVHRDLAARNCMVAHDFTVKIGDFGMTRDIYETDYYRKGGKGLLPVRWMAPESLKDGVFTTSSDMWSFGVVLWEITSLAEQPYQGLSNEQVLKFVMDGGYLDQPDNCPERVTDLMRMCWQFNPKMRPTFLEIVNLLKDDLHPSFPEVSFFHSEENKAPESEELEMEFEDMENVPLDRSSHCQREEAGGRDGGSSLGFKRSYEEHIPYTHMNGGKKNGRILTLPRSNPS

Insulin receptor [22] = target: T2, Insulin receptor; remark: listed apart in the source

Drug metabolism [1]: Metabolite_Detected
half-life [2]: 8 to 13 min
Drug metabolism [3]: Metabolite_Detected
Drug metabolism [4]: Metabolite_Detected
Drug metabolism [5]: Metabolite_Detected
Drug metabolism [6]: Metabolite_Detected
Drug metabolism [7]: Metabolite_Detected
Drug metabolism [8]: Metabolite_Detected
Drug metabolism [9]: Metabolite_Detected
Drug metabolism [10]: Metabolite_Detected
Drug metabolism [11]: Metabolite_Detected
half-life [12]: 7 to 16 min
half-life [13]: 10 to 11 min
IC50 [14]: 0.02 to 0.042 µM
IC50 (Focal adhesion kinase 1): 0.025 to 0.03 µM
IC50 (Cytochrome P450 1A2): > 10 µM
IC50 (Cytochrome P450 2C9): > 10 µM
IC50 (Cytochrome P450 2C19): > 10 µM
IC50 (Cytochrome P450 2D6): > 10 µM
half-life [16]: 17 min
AUC(0-inf) [17]: 1200 ng·h/mL
AUC/dose [18]: 299 ng·h/mL
AUC/dose [19]: 246 ng·h/mL
AUC/dose [20]: 95 ng·h/mL
IC50 (Insulin receptor [21]): 0.662 to 1.26 µM
IC50 (Insulin receptor [22]): > 10 µM
Compound: COc1c(Nc2ncc(Cl)c(N[C@H]3[C@@H](C(N)=O)[C@@H]4C=C[C@H]3C4)n2)ccc2c1CC[C@@H](N1CCOCC1)CC2
IC50 [15]: > 10 µM
